In brackets after ≈: the same amount, converted by molar mass. Structures can show the parent of a compound that is named as a salt. Where two headings read alike, the source gives them in different places.
Key:
[1] = system: carrageenan-inflamed mice paw; assay: Analgesia in inflamed tissue, carrageenan-induced hyperalgesia, mechanical allodynia in mice hind paw; type: in vivo, Male Swiss mice; settings: 2% solution, subplantar injection, 4 h after carrageenan
Description: The antinociceptive effect of the association between mepivacaine and complexed CAP (HP-β-CD-CAP) was evaluated in vivo. A sample of freeze-dried HP-β-CD-CAP was resuspended in 4 mL of mepivacaine hydrochloride solution (MVC) to final concentrations of 1.6 mM (0.05%) CAP and 2% MVC. MVC solution was previously sterilized by filtration 0.22 μm. (Millipore, Burlington, Massachusetts, USA). Male Swiss mice (30–35 g) were obtained from Centro de Bioterismo, University of Campinas, UNICAMP (CEMIB-UNICAMP, Campinas, São Paulo, Brazil) and housed in standard cages under a 12/12 h of light/dark cycle. All experiments were approved by the institutional animal care and use committee of Unicamp, meaning it follows the Brazilian national guideline, which is in line with the National Institutes of Health guide for the care and use of Laboratory animals (protocol # 4402-1).
The mechanical allodynia was analyzed in mice hind paw by a Dynamic Plantar Aesthesiometer (model 37450, Ugo Basile, Italy). The animals were placed in an elevated cage for 2 h before the test, for setting and training. […] The anesthetic formulations were then applied into the same subplantar region of the right paw of the mice, and the pain threshold was evaluated every 15 min. […] After the mechanical stimulus, the time elapsed until paw withdrawal as well as the applied pressure value were automatically recorded.

[2] = cited from earlier work
[3] = cited from earlier work; for Ks with HP-β-CD (from phase solubility study): LA base form; for solubility increment of CAP: at least 10 times greater HP-β-CD concentrations
[4] = Phase solubility study of CAP with HP-β-CD; type: physicochemical
Description: The effects of HP-β-CD on the solubility of CAP was investigated according to the phase solubility method described by Higuchi and Connors. In this experiment increasing concentrations of CD (0–10 mM) were added to a saturated CAP solution. The solutions were left under magnetic stirring for 48 h (350 rpm and 25 °C). Aliquots of each vial were centrifuged for 10 min (4100× g) and the supernatant was filtered through 0.45 μm (Millipore, Burlington, Massachusetts, USA) and diluted to determine CAP concentration by UV absorption at 280 nm. The phase solubility diagram was obtained by plotting the solubility of CAP, versus the concentrations of HP-β-CD […]. The apparent stability constant (Ks) were calculated by Equation (1), where S0 is the aqueous molar solubility of the drug, taken from the Y intercept of the plot:(1) Ks=slope/S0(1−slope)
The complexation efficiency (CE) determines the adequate ratio of CDs to ensure maximum solubility of the complexed drug. For the CAP-HP-β-CD complex, CE was calculated from the phase solubility plots, according to Equation (2). The CE values allow drug/CD ratio in the formulation, according to Equation (3):(2) CE=slope/(1−slope) (3) Drug:CD=1/(CE+1)/CE

[5] = DOSY NMR diffusion, complexed fraction and association constant; type: physicochemical
Description: DOSY is an experiment that separates the signals of a mixture of components according to the size and shape of the molecules. DOSY experiments were conducted with the pulse sequence ledbpgp2s, with a time diffusion of 0.06 s. […] The average acquisition time of the experiment was 40 min. The processing program (Dosy Toolbox) was run with data transformed using fn = 32 K. The diffusion coefficient and standard deviation of each species was given by the arithmetic mean of all coefficients of the same species. DOSY allows determination of the association constant (Ka), between guest molecules and CDs. Ka values are inferred from the complexed fraction (Fcomplexed) of the guest molecule, and both values were calculated accordingly to Equations (4) and (5), where Ddrug is the diffusion coefficient of the free drug, Dcomplex is the diffusion coefficient of the complex, Dcyclodextrin is the diffusion coefficient of free CD, and R is the molar concentration of non-complexed CD [25]:(4) Fcomplexed=[Ddrug−Dcomplex]/[Ddrug−Dciclodextrin] (5) Ka=[Ddrug−Dcomplex]/[Ddrug−Dciclodextrin] × R

[6] = In vitro release, Franz-type vertical diffusion cell; type: physicochemical; settings: 37 °C, PBS pH 7.4, n = 3
Description: A “Franz-type” vertical diffusion cell system was used to evaluate the in vitro release of CAP, comparing the free (dissolved in 20% ethanolic solution) and complexed drug with HP-β-CD [26]. The diffusion system consists of two compartments: the donor one—containing 1 mL of the sample—and the acceptor compartment, containing 12 mL of buffer (10 mM phosphate buffered saline, pH 7.4) kept at 37 °C, under mild stirring to ensure sink condition. A cellulose membrane (Spectrapore, Los Angeles, 1000 Da molecular exclusion pore) separated the two compartments. Aliquots (200 μL) were withdrawn from the acceptor compartment at fixed intervals (15, 30, […], 60, and 90 min, and every hour for 6 h) and the volume was replaced with fresh medium. CAP was quantified by HPLC, in a Waters Breeze 2 System (Waters, Milford, Massachussets, USA) at 280 nm and 30 °C, using a Luna® C18 (2) reverse phase (25 × 4.6 mm, 5 μm) (Phenomenex, Torrance, California, USA), 30-µL injection volume, phosphoric acid (1:1000 v/v) and acetonitrile (7:3 v:v), at pH 2.4, and 1.0 mL/min flow rate.

[7] = parameters: method as in PMID 19440843; settings: pure HP-β-CD 15% m/w; cited from earlier work
[8] = complexation with HP-β-CD, DOSY-NMR

Compound: Cc1cccc(C)c1NC(=O)C1CCCCN1C (centres unmarked) [MVC, mepivacaine hydrochloride]
- induction of anesthesia in inflamed paw [1]: did not induce anesthesia in mice at any time tested

Compound: CCCCN1CCCC[C@H]1C(=O)Nc1c(C)cccc1C [S-bupivacaine]
- association constant (Ka) [2, 8]: 91 M⁻¹
- complexed fraction (Fcomplexed) [2, 8]: 57%

Compound: Cc1cccc(C)c1NC(=O)C1CCCCN1C (centres unmarked) [mepivacaine]
- Ks with HP-β-CD (from phase solubility study) [3]: 38 M⁻¹

Compound: Clc1ccccc1C(c1ccccc1)(c1ccccc1)n1ccnc1 [clotrimazole]
- molecules of HP-β-CD demanded for optimal complexation [3]: 21 molecules

Compound: COc1cc(CNC(=O)CCCC/C=C/C(C)C)ccc1O [CAP, Capsaicin]
- improvement of apparent solubility of CAP [4]: up to 20 times
- moles of HP-β-CD required per mole of drug to solubilize (D:CD, Equation (3)) [4]: 4.2 mol
- solubility at 48 h ([4]; 25 °C, aqueous with cosolvent or surfactant or cyclodextrin, thermodynamic from solid): 2200 µM (≈ 672 µg/mL)
- diffusion coefficient (D) [5]: 4.94 × 10^−10 m^2s^−1
- time of CAP release [6]: 5 h
- diffusion coefficient (D) [2]: 4.81 × 10^−10 m^2s^−1
- solubility increment of CAP ([3]; at 27 °C): 160 times
- solubility increment of CAP ([3]; at 37 °C): 147 times

Compound: CCCCN1CCCCC1C(=O)Nc1c(C)cccc1C (centres unmarked) [bupivacaine]
- Ks with HP-β-CD (from phase solubility study) [3]: 95 M⁻¹

Compound: Clc1ccc(COC(Cn2ccnc2)c2ccc(Cl)cc2Cl)c(Cl)c1 (centres unmarked) [miconazole]
- molecules of HP-β-CD demanded for optimal complexation [3]: 12 molecules

Compound: CC(C)(C)c1ccc(C(O)CCCN2CCC(C(O)(c3ccccc3)c3ccccc3)CC2)cc1 (centres unmarked) [terfenadine]
- molecules of HP-β-CD demanded for optimal complexation [3]: 4 molecules

Compound: hydroxypropyl-β-cyclodextrin [HP-β-CD]
- diffusion coefficient (D) [5]: 2.00 × 10^−10 m^2s^−1
- collapse temperature (Tc) [7]: −9.5 °C
- diffusion coefficient (D) [2]: 2.21 × 10^−10 m^2s^−1
- HP-β-CD concentration above which aggregates start [3]: higher than 12 mM
